Results reported in patent US20060211698A1, “Bicyclic heteroaryl derivatives for treating viruses” (Genelabs, Inc., priority 2005, published 2006).

Each molecule was assayed against T1, HCV-NS5b (Hepatitis C virus genotype 1b, UniProt Q9WMX2) (assay: HCV-NS5b Enzyme Assay). Settings: 1 μM test compound; incorporation of [3H]-UTP, 37° C., 2 hours.
T1 construct: The cloned fragment was missing the C terminus 21 amino acid residues; (His)6 (C); made in house; host or cells: XL-1 cells (E. coli)
Format: biochemical
Description: The coding sequence of NS5b protein was cloned by PCR from pFKI389luc/NS3-3′/ET as described by Lohmann, V., et al. (1999) Science 285, 110-113 using the following primers: • […] (SEQ. ID. NO. 1) • […] (SEQ. ID. NO. 2)
The cloned fragment was missing the C terminus 21 amino acid residues. The cloned fragment is inserted into an IPTG-inducible expression plasmid that provides an epitope tag (His)6 at the carboxy terminus of the protein.
The recombinant enzyme was expressed in XL-1 cells and after induction of expression, the protein was purified using affinity chromatography on a nickel-NTA column. Storage condition is 10 mM Tris-HCl pH 7.5, 50 mM NaCl, 0.1 mM EDTA, 1 mM DTT, 20% glycerol at −20° C.
The polymerase activity was assayed by measuring incorporation of radiolabeled UTP into a RNA product using a biotinylated, heteropolymeric template, which includes a portion of the HCV genome. Typically, the assay mixture […] contains 10 mM Tris-HCl (pH 7.5), 5 mM MgCl2, 0.2 mM EDTA, 10 mM KCl, 1 unit/μL RNAsin. 1 mM DTT, 10 μM each of NTP, including [^3H]-UTP, and 10 ng/μL biotinylated heteropolymeric template. 20× test compound in 2 μl's was then added as a 100% DMSO solution to achieve a final DMSO concentration of 5%. For IC50 determination a 10-point dose response was used. The compounds were serial diluted 2-fold […]. Typically for IC50's, compounds were tested starting at 50 uM or 2 μm depending on the potency. Reactions were started with addition of 10×NS5B in 4 μl's and allowed to incubate at 37° C. for 2 hours. Reactions were quenched with 8 μL of 100 mM EDTA and reaction mixtures (30 μL) were transferred to streptavidin-coated scintillation proximity microtiter plates (FlashPlates) and incubated at 4° C. overnight. Incorporation of radioactivity was determined by scintillation counting (cpm). The % Inhibition at a particular concentration was determined using the following equation, % Inhibition=100−[100*(cpm with inhibitor−bg)/(cpm with no inhibitor−bg)] where bg was the background with no enzyme.

Row | SMILES | inhibition at 1 µM [%]
1 | Cc1nc(C)c(-c2ccc3cc(-c4c(C5CCCCC5)c5ccc(C(=O)O)c(C)c5n4CC(=O)N4CCOCC4)ccc3n2)s1 [Compound 238, 3-Cyclohexyl-2-[2-(2,4-dimethyl-thiazol-5-yl)-quinolin-6-yl]-7-methyl-1-(2-oxo-2-morpholino-4-yl-ethyl)-1H-indole-6-carboxylic acid] | 85.6
2 | COc1ccc(-c2ccc(Cl)cc2)c(-c2ccc3cc(-c4c(C5CCCCC5)c5ccc(C(=O)O)cc5n4CC(=O)O)ccc3n2)c1 [Compound 202, 1-carboxymethyl-2-[2-(4′-chloro-4-methoxy-biphenyl-2-yl)-quinolin-6-yl]-3-cyclohexyl-1H-indole-6-carboxylic acid] | 98.3
3 | Cc1nc(C)c(-c2ccc3cc(-c4c(C5CCCCC5)c5ccc(C(=O)O)cc5n4CCN4CCOCC4)ccc3n2)s1 [Compound 290, 3-Cyclohexyl-2-[2-(2,4-dimethyl-thiazol-5-yl)-quinolin-6-yl]-1-(2-morpholin-4-yl-ethyl)-1H-indole-6-carboxylic acid] | 79.1
4 | COc1cccc(Cn2c(-c3ccc4nc(-c5sc(C)nc5C)ccc4c3)c(C3CCCCC3)c3ccc(C(=O)O)cc32)c1 [Compound 293, 3-Cyclohexyl-2-[2-(2,4-dimethyl-thiazol-5-yl)-quinolin-6-yl]-1-(3-methoxy-benzyl)-1H-indole-6-carboxylic acid] | 69.2
5 | Cc1nc(C)c(-c2ccc3cc(-c4c(C5CCCCC5)c5ccc(C(=O)O)cc5n4CC(=O)O)ccc3n2)s1 [Compound 211, 1-[carboxymethyl]-2-[2-(2,4-dimethylthiazol-5-yl)-quinolin-6-yl]-3-cyclohexyl-1H-indole-6-carboxylic acid] | 91
6 | Cc1nc(C)c(-c2ccc3cc(-c4c(C5CCCCC5)c5ccc(C(=O)O)cc5n4CC(=O)Nc4nn[nH]n4)ccc3n2)s1 [Compound 239, 3-Cyclohexyl-2-[2-(2,4-dimethyl-thiazol-5-yl)-quinolin-6-yl]-1-[(2H-tetrazol-5-ylcarbamoyl)-methyl]-1H-indole-6-carboxylic acid] | 96.9
7 | Cc1nc(C)c(-c2ccc3cc(-c4c(C5CCCCC5)c5ccc(C(=O)O)cc5n4CC(=O)NCCO)ccc3n2)s1 [Compound 215, 1-[(2-hydroxyethylcarbamoyl)-methyl]-2-[2-(2,4-dimethyl-thiazol-5-yl)-quinolin-6-yl]-3-cyclohexyl-1H-indole-6-carboxylic acid] | 94.3
8 | Cc1nc(C)c(-c2ccc3cc(-c4c(C5CCCCC5)c5ccc(C(=O)O)cc5n4CC(=O)N4CCC(C(=O)O)CC4)ccc3n2)s1 [Compound 241, 1-[2-(4-Carboxy-piperidin-1-yl)-2-oxo-ethyl]-3-cyclohexyl-2-[2-(2,4-dimethyl-thiazol-5-yl)-quinolin-6-yl]-1H-indole-6-carboxylic acid] | 94.1
9 | Cc1nc(C)c(-c2ccc3cc(-c4c(C5CCCCC5)c5ccc(C(=O)NCCc6nnn[nH]6)cc5n4CC(=O)N4CCOCC4)ccc3n2)s1 [Compound 245, 3-Cyclohexyl-2-[2-(2,4-dimethyl-thiazol-5-yl)-quinolin-6-yl]-1-(2-morpholin-4-yl-2-oxo-ethyl)-1H-indole-6-carboxylic acid [2-(1H-tetrazol-5-yl)-ethyl]-amide] | 91.3
10 | Cc1nc(C)c(-c2ccc3cc(-c4c(C5CCCCC5)c5ccc(C(=O)O)cc5n4CC(=O)N4CCCC4C)ccc3n2)s1 (stereo not drawn) [Compound 277, 3-Cyclohexyl-2-[2-(2,4-dimethyl-thiazol-5-yl)-quinolin-6-yl]-1-[2-(2-methyl-pyrrolidin-1-yl)-2-oxo-ethyl]-1H-indole-6-carboxylic acid] | 96.3
11 | Cc1nc(C)c(-c2ccc3cc(-c4c(C5CCCCC5)c5ccc(C(=O)O)cc5n4CC(=O)N4C(C)COCC4C)ccc3n2)s1 (stereo not drawn) [Compound 279, 3-Cyclohexyl-1-[2-(3,5-dimethyl-morpholin-4-yl)-2-oxo-ethyl]-2-[2-(2,4-dimethyl-thiazol-5-yl)-quinolin-6-yl]-1H-indole-6-carboxylic acid] | 100
12 | Cc1cc(Cn2c(-c3ccc4nc(-c5sc(C)nc5C)ccc4c3)c(C3CCCCC3)c3ccc(C(=O)O)cc32)no1 [Compound 291, 3-Cyclohexyl-2-[2-(2,4-dimethyl-thiazol-5-yl)-quinolin-6-yl]-1-(5-methyl-isoxazol-3-ylmethyl)-1H-indole-6-carboxylic acid] | 96.4

Continued, values first:

Row | inhibition at 1 µM [%] | SMILES
13 | 96.8 | O=C(O)c1ccc2c(C3CCCCC3)c(-c3ccc4nc(-c5ccccc5)cnc4c3)n(CC(=O)N3CCOCC3)c2c1 [Compound 330, 3-Cyclohexyl-1-(2-morpholin-4-yl-2-oxo-ethyl)-2-(2-phenyl-quinoxalin-6-yl)-1H-indole-6-carboxylic acid]
14 | 99.8 | O=C(O)c1ccc2c(C3CCCCC3)c(-c3ccc(-c4ccc5ccccc5n4)cc3)n(CC(=O)N3CCOCC3)c2c1 [Compound 326, 3-Cyclohexyl-1-(2-morpholin-4-yl-2-oxo-ethyl)-2-(4-quinolin-2-yl-phenyl)-1H-indole-6-carboxylic acid]
15 | 98 | O=C(O)c1ccc2c(C3CCCCC3)c(-c3ccc(-c4cccnc4F)cc3)n(CC(=O)N3CCOCC3)c2c1 [Compound 303, 3-Cyclohexyl-2-[4-(2-fluoro-pyridin-3-yl)-phenyl]-1-(2-morpholin-4-yl-2-oxo-ethyl)-1H-indole-6-carboxylic acid]
16 | 92.5 | Cc1nc(C)c(-c2ccc3cc(-c4c(C5CCCCC5)c5ccc(C(=O)O)cc5n4CC(=O)N4CCC(O)CC4)ccc3n2)s1 [Compound 236, 3-Cyclohexyl-2-[2-(2,4-dimethyl-thiazol-5-yl)-quinolin-6-yl]-1-[2-(4-hydroxy-piperidin-1-yl)-2-oxo-ethyl]-1H-indole-6-carboxylic acid]
17 | 98 | C=Cc1ccc(-c2ccc(-c3c(C4CCCCC4)c4ccc(C(=O)O)cc4n3CC(=O)N3CCOCC3)cc2)cc1 [Compound 314, 3-Cyclohexyl-1-(2-morpholin-4-yl-2-oxo-ethyl)-2-(4′-vinyl-biphenyl-4-yl)-1H-indole-6-carboxylic acid]
18 | 99.6 | COc1cccc(-c2ccc3cc(-c4c(C5CCCCC5)c5ccc(C(=O)O)cc5n4CC(=O)N4CCOCC4)ccc3n2)c1 [Compound 221, 3-Cyclohexyl-2-[2-(3-methoxy-phenyl)-quinolin-6-yl]-1-(2-morpholin-4-yl-2-oxo-ethyl)-1H-indole-6-carboxylic acid]
19 | 99.9 | Cc1ccc(-c2ccc3cc(-c4c(C5CCCCC5)c5ccc(C(=O)O)cc5n4CC(=O)N4CCOCC4)ccc3n2)cc1C [Compound 250, 3-Cyclohexyl-2-[2-(3,4-dimethyl-phenyl)-quinolin-6-yl]-1-(2-morpholin-4-yl-2-oxo-ethyl)-1H-indole-6-carboxylic acid]
20 | 91.8 | Cc1nc(C)c(-c2ccc3cc(-c4c(C5CCCCC5)c5ccc(C(=O)O)cc5n4CC(=O)N4CCC(N5CCOCC5)CC4)ccc3n2)s1 [Compound 278, 3-Cyclohexyl-2-[2-(2,4-dimethyl-thiazol-5-yl)-quinolin-6-yl]-1-[2-(4-morpholin-4-yl-piperidin-1-yl)-2-oxo-ethyl]-1H-indole-6-carboxylic acid]
21 | 94.6 | O=C(O)c1ccc2c(C3CCCCC3)c(-c3ccc4nc(-c5ccccc5C(F)(F)F)ccc4c3)n(CC(=O)N3CCOCC3)c2c1 [Compound 267, 3-Cyclohexyl-1-(2-morpholin-4-yl-2-oxo-ethyl)-2-[2-(2-trifluoromethyl-phenyl)-quinolin-6-yl]-1H-indole-6-carboxylic acid]
22 | 95.2 | Cc1nc(C(F)(F)F)sc1-c1ccc2cc(-c3c(C4CCCCC4)c4ccc(C(=O)O)cc4n3CC(=O)N3CCOCC3)ccc2n1 [Compound 248, 3-Cyclohexyl-2-[2-(4-methyl-2-trifluoromethyl-thiazol-5-yl)-quinolin-6-yl]-1-(2-morpholin-4-yl-2-oxo-ethyl)-1H-indole-6-carboxylic acid]
23 | 94.4 | O=C(O)c1ccc2c(C3CCCCC3)c(-c3ccc4nc(-c5ccc(C(F)(F)F)cc5)ccc4c3)n(CC(=O)N3CCOCC3)c2c1 [Compound 263, 3-Cyclohexyl-1-(2-morpholin-4-yl-2-oxo-ethyl)-2-[2-(4-trifluoromethyl-phenyl)-quinolin-6-yl]-1H-indole-6-carboxylic acid]
24 | 98.1 | O=C(O)c1ccc2c(C3CCCCC3)c(-c3ccc4nc(-c5cccc([N+](=O)[O-])c5)ccc4c3)n(CC(=O)N3CCOCC3)c2c1 [Compound 256, 3-Cyclohexyl-2-[2-(3-nitro-phenyl)-quinolin-6-yl]-1-(2-morpholin-4-yl-2-oxo-ethyl)-1H-indole-6-carboxylic acid]
